{"source": "patent US9901617B2", "about": "“Cell permeable inhibitors of the scaffold protein plenty of SH3 domains (POSH) or Sh3Rfl” (The Curators of the University of Missouri, priority 2013, dated 2018)", "key": {"[1]": {"target": "POSH/JIP-1 complex (Mus musculus, UniProt Q9WVI9)", "sequence (Q9WVI9 whole entry)": "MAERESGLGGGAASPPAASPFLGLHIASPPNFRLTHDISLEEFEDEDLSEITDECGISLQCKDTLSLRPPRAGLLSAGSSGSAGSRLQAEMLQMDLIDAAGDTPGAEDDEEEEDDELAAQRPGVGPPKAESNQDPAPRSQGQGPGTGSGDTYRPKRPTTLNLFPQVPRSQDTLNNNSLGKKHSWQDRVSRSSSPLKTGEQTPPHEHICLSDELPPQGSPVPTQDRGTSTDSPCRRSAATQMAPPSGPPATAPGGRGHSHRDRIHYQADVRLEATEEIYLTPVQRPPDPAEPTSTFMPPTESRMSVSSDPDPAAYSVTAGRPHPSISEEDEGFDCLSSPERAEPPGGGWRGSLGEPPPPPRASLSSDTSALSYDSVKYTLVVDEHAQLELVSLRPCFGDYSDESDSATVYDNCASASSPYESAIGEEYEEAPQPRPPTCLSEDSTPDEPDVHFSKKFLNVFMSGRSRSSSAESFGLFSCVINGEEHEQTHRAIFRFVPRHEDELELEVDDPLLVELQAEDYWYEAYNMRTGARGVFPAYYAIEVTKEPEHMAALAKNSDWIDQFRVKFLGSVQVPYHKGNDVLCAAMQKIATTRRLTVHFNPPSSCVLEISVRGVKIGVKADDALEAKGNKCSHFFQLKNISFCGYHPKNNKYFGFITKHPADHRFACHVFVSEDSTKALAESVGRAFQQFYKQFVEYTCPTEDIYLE", "sequence (Q8CE90 whole entry partner)": "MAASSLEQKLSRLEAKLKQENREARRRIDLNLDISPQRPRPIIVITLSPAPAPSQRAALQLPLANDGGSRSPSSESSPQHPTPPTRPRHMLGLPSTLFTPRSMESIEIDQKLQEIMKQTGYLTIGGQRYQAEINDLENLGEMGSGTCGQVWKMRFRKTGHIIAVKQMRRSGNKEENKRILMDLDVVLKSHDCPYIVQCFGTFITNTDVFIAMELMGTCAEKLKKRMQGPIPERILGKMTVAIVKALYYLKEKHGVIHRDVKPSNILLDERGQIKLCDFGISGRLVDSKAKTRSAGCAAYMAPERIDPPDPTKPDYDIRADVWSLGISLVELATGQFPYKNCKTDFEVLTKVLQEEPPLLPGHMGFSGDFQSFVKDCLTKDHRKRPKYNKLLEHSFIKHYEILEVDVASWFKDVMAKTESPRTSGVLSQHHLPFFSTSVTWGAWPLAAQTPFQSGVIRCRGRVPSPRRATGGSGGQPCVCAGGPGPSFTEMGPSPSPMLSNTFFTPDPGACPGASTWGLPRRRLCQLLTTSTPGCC", "sequence (Q91Y86 whole entry partner)": "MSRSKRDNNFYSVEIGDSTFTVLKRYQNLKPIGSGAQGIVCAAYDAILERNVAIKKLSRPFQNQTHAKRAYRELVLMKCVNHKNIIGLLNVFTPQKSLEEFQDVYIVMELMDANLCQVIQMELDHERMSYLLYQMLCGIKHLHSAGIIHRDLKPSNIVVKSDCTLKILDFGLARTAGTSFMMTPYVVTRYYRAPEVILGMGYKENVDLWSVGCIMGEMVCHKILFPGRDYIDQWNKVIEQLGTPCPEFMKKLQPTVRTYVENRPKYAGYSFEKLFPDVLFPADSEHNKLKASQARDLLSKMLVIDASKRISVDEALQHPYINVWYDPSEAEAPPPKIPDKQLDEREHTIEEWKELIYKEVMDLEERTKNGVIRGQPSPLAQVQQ", "experimental": "To identify a role for POSH in TCR-mediated JNK activation, we established its ability to bind components of the JNK signaling cascade in CD8+ T cells. For this, OT-1 TCR transgenic blasts (CTL) were re-stimulated with OVA-Tetramer (Tet)/α-CD28 and subjected to IP with antibodies against Rac1. Co-immunoprecipitation (Co-IP) of components of the JNK signaling pathway was assessed by immunoblot. […] To circumvent this problem we performed Co-IP analyses by flow cytometry (IP-FCM) using α-Rac1, α-POSH and α-JIP-1 antibodies covalently linked to latex beads. The beads were incubated with the lysates washed and probed with antibodies against the Co-IP target. The levels of associated molecules (secondary analyte/Co-IP target) were quantified relative to IP target (primary analyte/loading control). Specificity was determined by comparison to both isotype and negative control antibodies (FIG. 5 and FIG. 6). […] For IP-FCM quantification controls and Tat-POSH inhibitor specificity controls, OT-I T cells were stimulated with OVA-Tet for 24 hours. Cells were then lysed and subjected to IP-FCM using α-Rac-1, α-POSH or α-JIP-1 beads (FIG. 6A).\nCells were then lysed and subjected to IP-FCM using α-JIP-1 or α-Rac1 beads and the relative levels of POSH or JIP-1 were determined."}, "[2]": {"tested_on": "T cells", "details": "across a large range of concentrations"}, "[3]": {"tested_on": "CD8+ T cells", "details": "data not shown"}, "[4]": {"tested_on": "normal thymocytes"}}, "note": "No end group written: not given here."}
{"sequence": "GRKKRRQRRRPPRKEDELELRKGEMFLVFER [Tat-POSH SH3.3]", "values": [{"measurement": "POSH/JIP-1 complexes disrupted", "setting": "[1]", "result": "approximately 30%"}, {"measurement": "toxicity to T cells", "setting": "[2]", "result": "non-toxic"}, {"measurement": "reduction in in vitro cytotoxicity", "setting": "[3]", "result": "10-15%"}, {"measurement": "effect on normal cells", "setting": "[4]", "result": "not affected"}]}
